Measurements as given in patent EP1247803A2, “Indolinone compounds suitable for modulation of protein kinases” (Sugen, Inc., priority 1996, dated 1998).

Target: T1, FLK-1 receptor (Mus musculus, UniProt P35918)
T1 construct: expressed in transfected cells; host or cells: NIH3T3 C7#3
Assay: FLK-1 ELISA (kinase activity of the FLK-1 receptor in FLK-1/NIH3T3 cells, VEGF stimulated)
Format: cell-based
Method in brief: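 NIH3T3 C7#3 cells expressing FLK-1 were seeded at 25.000 cells/well, serum-starved overnight in 0.1% FBS, then treated with compound for two hours at 37°C (final DMSO 0.5%) before VEGF stimulation. Receptor was captured on anti-rabbit IgG-coated ELISA plates bearing affinity-purified anti-FLK-1 antiserum.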

T1 sequence (P35918 20-1345): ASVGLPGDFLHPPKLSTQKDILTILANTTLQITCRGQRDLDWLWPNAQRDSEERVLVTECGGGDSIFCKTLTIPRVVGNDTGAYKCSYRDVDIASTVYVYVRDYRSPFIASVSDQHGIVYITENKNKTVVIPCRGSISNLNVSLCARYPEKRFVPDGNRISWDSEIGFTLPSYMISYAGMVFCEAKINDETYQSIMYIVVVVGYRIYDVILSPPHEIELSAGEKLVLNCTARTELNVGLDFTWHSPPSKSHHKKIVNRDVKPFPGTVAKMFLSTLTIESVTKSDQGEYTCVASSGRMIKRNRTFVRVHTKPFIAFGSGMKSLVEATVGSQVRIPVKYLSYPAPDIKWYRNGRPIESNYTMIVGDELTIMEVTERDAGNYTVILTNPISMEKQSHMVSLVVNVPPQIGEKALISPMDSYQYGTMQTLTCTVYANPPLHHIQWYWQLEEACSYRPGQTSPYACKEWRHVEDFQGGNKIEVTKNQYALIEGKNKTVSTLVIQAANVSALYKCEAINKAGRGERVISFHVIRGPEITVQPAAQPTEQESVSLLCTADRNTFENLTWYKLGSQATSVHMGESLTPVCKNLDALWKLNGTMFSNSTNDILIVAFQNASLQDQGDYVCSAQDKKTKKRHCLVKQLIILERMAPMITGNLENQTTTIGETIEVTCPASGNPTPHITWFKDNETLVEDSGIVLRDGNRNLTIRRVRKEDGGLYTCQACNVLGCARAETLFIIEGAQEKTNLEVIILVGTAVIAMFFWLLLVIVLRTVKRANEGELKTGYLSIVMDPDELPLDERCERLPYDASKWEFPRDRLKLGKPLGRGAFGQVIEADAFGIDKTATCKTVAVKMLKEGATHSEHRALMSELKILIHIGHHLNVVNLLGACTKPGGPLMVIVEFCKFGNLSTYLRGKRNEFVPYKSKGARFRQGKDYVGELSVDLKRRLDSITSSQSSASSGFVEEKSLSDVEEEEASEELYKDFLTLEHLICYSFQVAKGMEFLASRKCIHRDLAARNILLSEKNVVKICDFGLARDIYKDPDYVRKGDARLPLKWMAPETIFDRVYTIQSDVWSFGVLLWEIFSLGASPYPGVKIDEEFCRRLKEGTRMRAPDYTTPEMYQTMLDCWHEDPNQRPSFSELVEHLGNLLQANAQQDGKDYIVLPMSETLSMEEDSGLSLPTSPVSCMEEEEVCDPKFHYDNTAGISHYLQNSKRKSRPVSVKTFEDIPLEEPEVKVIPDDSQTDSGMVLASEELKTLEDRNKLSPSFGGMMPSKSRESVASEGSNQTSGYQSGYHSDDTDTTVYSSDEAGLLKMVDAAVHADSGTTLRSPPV

| SMILES | Fik Kinase %Inhibition [%] |
| --- | --- |
| CCOc1ccccc1C=C1C(=O)Nc2ccc(I)cc21 [10717/B02] | 5.0 |
| O=C1Nc2ccc(I)cc2C1=Cc1cccs1 [10717/B03] | -8.8 |
| Cn1cccc1C=C1C(=O)Nc2ccc(I)cc21 [10717/B04] | -18.3 |
| O=C1Nc2ccc(I)cc2C1=Cc1ccc(F)cc1 [10717/B05] | 1.0 |
| O=C1Nc2ccc(I)cc2C1=Cc1c[nH]c2ccccc12 [10717/B06] | 5.4 |
| CCOC(=O)c1c(C)[nH]c(C=C2C(=O)Nc3ccc(S(=O)(=O)N4CCOCC4)cc32)c1C [10718/F02] | 20.1 |
| COc1cc(Br)c(O)c(C=C2C(=O)Nc3ccc(S(=O)(=O)N4CCOCC4)cc32)c1 [10718/F03] | -0.2 |
| O=C1Nc2ccc(S(=O)(=O)N3CCOCC3)cc2C1=Cc1ccc2ccccc2c1O [10718/F04] | 9.4 |
| CCOC(=O)CCc1c(C(=O)OCC)[nH]c(C=C2C(=O)Nc3ccc(S(=O)(=O)N4CCOCC4)cc32)c1CC(=O)OCC [10718/F05] | 19.5 |
| CCOC(=O)c1cc(C=C2C(=O)Nc3ccc(S(=O)(=O)N4CCOCC4)cc32)oc1C [10718/F06] | 18.3 |
| COC(=O)c1[nH]c(C)c(C=C2C(=O)Nc3ccc(S(=O)(=O)N4CCOCC4)cc32)c1C(=O)OC [10718/F07] | 16.5 |
| O=C1Nc2ccc(S(=O)(=O)N3CCOCC3)cc2C1=Cc1ccc(Cl)c([N+](=O)[O-])c1 [10718/F08] | 15.3 |
| Cc1c(O)ccc(C=C2C(=O)Nc3ccc(S(=O)(=O)N4CCOCC4)cc32)c1O [10718/F09] | -3.0 |
| O=C1Nc2ccc(S(=O)(=O)N3CCOCC3)cc2C1=Cc1ccco1 [10718/F10] | 17.9 |
| O=C1Nc2ccc(S(=O)(=O)N3CCOCC3)cc2C1=Cc1ccc([N+](=O)[O-])o1 [10718/F11] | 10.1 |
| CCOC(=O)c1c(C)[nH]c(C=C2C(=O)Nc3ccc(CCCl)cc32)c1C [10718/G02] | -2.5 |
| COc1cc(Br)c(O)c(C=C2C(=O)Nc3ccc(CCCl)cc32)c1 [10718/G03] | -4.7 |
| O=C1Nc2ccc(CCCl)cc2C1=Cc1ccc2ccccc2c1O [10718/G04] | 1.8 |
| CCOC(=O)CCc1c(C(=O)OCC)[nH]c(C=C2C(=O)Nc3ccc(CCCl)cc32)c1CC(=O)OCC [10718/G05] | 3.7 |
| CCOC(=O)c1cc(C=C2C(=O)Nc3ccc(CCCl)cc32)oc1C [10718/G06] | 9.8 |
| COC(=O)c1[nH]c(C)c(C=C2C(=O)Nc3ccc(CCCl)cc32)c1C(=O)OC [10718/G07] | 11.4 |
| O=C1Nc2ccc(CCCl)cc2C1=Cc1ccc(Cl)c([N+](=O)[O-])c1 [10718/G08] | 6.1 |

| SMILES | Fik Kinase %Inhibition [%] |
| --- | --- |
| Cc1c(O)ccc(C=C2C(=O)Nc3ccc(CCCl)cc32)c1O [10718/G09] | -12.8 |
| O=C1Nc2ccc(CCCl)cc2C1=Cc1ccco1 [10718/G10] | 7.1 |
| O=C1Nc2ccc(CCCl)cc2C1=Cc1ccc([N+](=O)[O-])o1 [10718/G11] | 15.6 |
| CCOc1ccc(C=C2C(=O)Nc3c(Br)cc(Br)cc32)cc1OC [10719/A02] | 21.4 |
| O=C1Nc2c(Br)cc(Br)cc2C1=Cc1ccc(O)c(O)c1 [10719/A03] | 3.9 |
| COc1ccc(C=C2C(=O)Nc3c(Br)cc(Br)cc32)c(OC)c1 [10719/A04] | 19.2 |
| CCc1c(C)[nH]c(C=C2C(=O)Nc3c(Br)cc(Br)cc32)c1C [10719/A05] | 10.0 |
| COc1cc(OC)c(C=C2C(=O)Nc3c(Br)cc(Br)cc32)c(OC)c1 [10719/A06] | 14.0 |
| O=C1Nc2c(Br)cc(Br)cc2C1=Cc1ccc(O)cc1 [10719/A07] | 21.3 |
| CN(C)c1ccc(C=C2C(=O)Nc3c(Br)cc(Br)cc32)cc1 [10719/A08] | 11.9 |
| O=C1Nc2c(Br)cc(Br)cc2C1=Cc1ccc(F)cc1Cl [10719/A09] | 12.3 |
| O=C1Nc2c(Br)cc(Br)cc2C1=Cc1cccc([N+](=O)[O-])c1 [10719/A10] | 10.9 |
| O=C1Nc2c(Br)cc(Br)cc2C1=Cc1ccc(F)cc1C(F)(F)F [10719/A11] | 7.4 |
| CCOc1ccc(C=C2C(=O)Nc3ccc(I)cc32)cc1OC [10719/B02] | 11.5 |
| O=C1Nc2ccc(I)cc2C1=Cc1ccc(O)c(O)c1 [10719/B03] | 14.2 |
| COc1ccc(C=C2C(=O)Nc3ccc(I)cc32)c(OC)c1 [10719/B04] | 24.9 |
| CCc1c(C)[nH]c(C=C2C(=O)Nc3ccc(I)cc32)c1C [10719/B05] | 17.7 |
| COc1cc(OC)c(C=C2C(=O)Nc3ccc(I)cc32)c(OC)c1 [10719/B06] | 21.3 |
| O=C1Nc2ccc(I)cc2C1=Cc1ccc(O)cc1 [10719/B07] | 12.5 |
| CN(C)c1ccc(C=C2C(=O)Nc3ccc(I)cc32)cc1 [10719/B08] | 4.0 |
| O=C1Nc2ccc(I)cc2C1=Cc1ccc(F)cc1Cl [10719/B09] | 11.3 |
| O=C1Nc2ccc(I)cc2C1=Cc1cccc([N+](=O)[O-])c1 [10719/B10] | 1.1 |

| SMILES | Fik Kinase %Inhibition [%] |
| --- | --- |
| O=C1Nc2ccc(I)cc2C1=Cc1ccc(F)cc1C(F)(F)F [10719/B11] | 11.2 |
| CCOc1ccc(C=C2C(=O)Nc3ccc(Br)c(C)c32)cc1OC [10719/C02] | 4.1 |
| Cc1c(Br)ccc2c1C(=Cc1ccc(O)c(O)c1)C(=O)N2 [10719/C03] | 15.3 |
| COc1ccc(C=C2C(=O)Nc3ccc(Br)c(C)c32)c(OC)c1 [10719/C04] | 59.9 |
| CCc1c(C)[nH]c(C=C2C(=O)Nc3ccc(Br)c(C)c32)c1C [10719/C05] | 25.6 |
| COc1cc(OC)c(C=C2C(=O)Nc3ccc(Br)c(C)c32)c(OC)c1 [10719/C06] | 47.7 |
| Cc1c(Br)ccc2c1C(=Cc1ccc(O)cc1)C(=O)N2 [10719/C07] | 31.2 |
| Cc1c(Br)ccc2c1C(=Cc1ccc(N(C)C)cc1)C(=O)N2 [10719/C08] | 15.0 |
| Cc1c(Br)ccc2c1C(=Cc1ccc(F)cc1Cl)C(=O)N2 [10719/C09] | 23.5 |
| O=C1Nc2ccc(S(=O)(=O)Nc3ccc(C(F)(F)F)cc3)cc2C1=Cc1cc(Cl)ccc1O [10734/E04] | 10.7 |
| CCN(CC)c1ccc(C=C2C(=O)Nc3ccc(S(=O)(=O)Nc4ccc(C(F)(F)F)cc4)cc32)c(O)c1 [10734/E05] | 10.6 |
| O=C1Nc2ccc(S(=O)(=O)Nc3ccc(C(F)(F)F)cc3)cc2C1=Cc1ccc([N+](=O)[O-])cc1 [10734/E06] | 28.4 |
| O=C1Nc2ccc(S(=O)(=O)Nc3ccc(C(F)(F)F)cc3)cc2C1=Cc1cc(Br)cc(Br)c1O [10734/E07] | 27.9 |
| O=C1Nc2ccc(S(=O)(=O)Nc3ccc(C(F)(F)F)cc3)cc2C1=Cc1cccc(F)c1O [10734/E08] | 26.6 |
| O=C1Nc2ccc(S(=O)(=O)Nc3ccc(C(F)(F)F)cc3)cc2C1=Cc1ccc(O)c(Br)c1 [10734/E09] | 8.0 |
| CC(C)(C)c1ccc(C=C2C(=O)Nc3ccc(S(=O)(=O)Nc4ccc(C(F)(F)F)cc4)cc32)cc1 [10734/E10] | 18.5 |
| O=C1Nc2ccc(S(=O)(=O)Nc3ccc(C(F)(F)F)cc3)cc2C1=Cc1ccc(Br)s1 [10734/E11] | 19.2 |
| CCOc1cccc(C=C2C(=O)Nc3ccc(S(=O)(=O)N4CCOCC4)cc32)c1O [10734/F02] | 6.2 |
| O=C1Nc2ccc(S(=O)(=O)N3CCOCC3)cc2C1=Cc1cc(Cl)cc(Cl)c1O [10734/F03] | 4.2 |
| O=C1Nc2ccc(S(=O)(=O)N3CCOCC3)cc2C1=Cc1cc(Cl)ccc1O [10734/F04] | -2.6 |
| CCN(CC)c1ccc(C=C2C(=O)Nc3ccc(S(=O)(=O)N4CCOCC4)cc32)c(O)c1 [10734/F05] | 9.8 |
| O=C1Nc2ccc(S(=O)(=O)N3CCOCC3)cc2C1=Cc1ccc([N+](=O)[O-])cc1 [10734/F06] | 11.0 |

Target: PDGF-R (Homo sapiens, UniProt P09619)
Sequence (P09619 33-1106, species assumed): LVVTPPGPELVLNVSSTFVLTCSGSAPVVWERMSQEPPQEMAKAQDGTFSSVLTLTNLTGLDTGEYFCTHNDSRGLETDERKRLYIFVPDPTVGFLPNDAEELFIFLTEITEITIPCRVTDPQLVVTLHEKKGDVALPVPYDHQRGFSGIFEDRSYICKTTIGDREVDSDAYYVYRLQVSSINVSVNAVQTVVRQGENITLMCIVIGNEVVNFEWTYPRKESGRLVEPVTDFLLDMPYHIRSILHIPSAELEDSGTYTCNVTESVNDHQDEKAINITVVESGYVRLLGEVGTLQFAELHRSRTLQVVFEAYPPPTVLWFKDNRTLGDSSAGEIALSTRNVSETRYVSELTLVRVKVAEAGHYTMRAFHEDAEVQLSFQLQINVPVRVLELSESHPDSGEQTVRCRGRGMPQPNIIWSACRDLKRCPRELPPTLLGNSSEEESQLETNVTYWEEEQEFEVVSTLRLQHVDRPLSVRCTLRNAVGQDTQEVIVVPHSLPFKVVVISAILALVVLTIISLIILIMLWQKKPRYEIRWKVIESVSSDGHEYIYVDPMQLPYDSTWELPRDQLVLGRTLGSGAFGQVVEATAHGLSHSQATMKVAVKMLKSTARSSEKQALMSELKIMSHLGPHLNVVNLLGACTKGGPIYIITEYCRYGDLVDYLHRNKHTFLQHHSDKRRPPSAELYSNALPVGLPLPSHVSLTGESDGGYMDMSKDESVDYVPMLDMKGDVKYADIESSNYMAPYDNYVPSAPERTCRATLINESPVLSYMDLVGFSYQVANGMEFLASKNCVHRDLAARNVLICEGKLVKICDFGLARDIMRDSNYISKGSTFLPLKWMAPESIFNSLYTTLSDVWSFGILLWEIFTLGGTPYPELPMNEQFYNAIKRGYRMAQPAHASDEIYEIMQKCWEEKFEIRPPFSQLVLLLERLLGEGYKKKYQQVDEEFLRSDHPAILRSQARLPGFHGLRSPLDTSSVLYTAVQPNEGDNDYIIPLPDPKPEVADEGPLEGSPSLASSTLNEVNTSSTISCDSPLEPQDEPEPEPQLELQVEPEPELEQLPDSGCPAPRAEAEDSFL
Assay: PDGF-R ELISA
Format: cell-based
Text: A PDGF-R ELISA is described in International Patent Publication No. WO 96/40116, published December 19, 1996 by Tang et al.

| SMILES | PDGF Kinase %Inhibition [%] |
| --- | --- |
| O=C1Nc2ccc(S(=O)(=O)Nc3ccc(C(F)(F)F)cc3)cc2C1=Cc1cc(Cl)ccc1O [10734/E04] | 26.7 |
| CCN(CC)c1ccc(C=C2C(=O)Nc3ccc(S(=O)(=O)Nc4ccc(C(F)(F)F)cc4)cc32)c(O)c1 [10734/E05] | 17.9 |
| O=C1Nc2ccc(S(=O)(=O)Nc3ccc(C(F)(F)F)cc3)cc2C1=Cc1ccc([N+](=O)[O-])cc1 [10734/E06] | 13.5 |
| O=C1Nc2ccc(S(=O)(=O)Nc3ccc(C(F)(F)F)cc3)cc2C1=Cc1cc(Br)cc(Br)c1O [10734/E07] | 8.2 |
| O=C1Nc2ccc(S(=O)(=O)Nc3ccc(C(F)(F)F)cc3)cc2C1=Cc1cccc(F)c1O [10734/E08] | 13.0 |
| O=C1Nc2ccc(S(=O)(=O)Nc3ccc(C(F)(F)F)cc3)cc2C1=Cc1ccc(O)c(Br)c1 [10734/E09] | 1.1 |
| CC(C)(C)c1ccc(C=C2C(=O)Nc3ccc(S(=O)(=O)Nc4ccc(C(F)(F)F)cc4)cc32)cc1 [10734/E10] | 29.8 |
| O=C1Nc2ccc(S(=O)(=O)Nc3ccc(C(F)(F)F)cc3)cc2C1=Cc1ccc(Br)s1 [10734/E11] | 16.1 |
| CCOc1cccc(C=C2C(=O)Nc3ccc(S(=O)(=O)N4CCOCC4)cc32)c1O [10734/F02] | 10.4 |
| O=C1Nc2ccc(S(=O)(=O)N3CCOCC3)cc2C1=Cc1cc(Cl)cc(Cl)c1O [10734/F03] | -24.1 |
| O=C1Nc2ccc(S(=O)(=O)N3CCOCC3)cc2C1=Cc1cc(Cl)ccc1O [10734/F04] | 25.0 |
| CCN(CC)c1ccc(C=C2C(=O)Nc3ccc(S(=O)(=O)N4CCOCC4)cc32)c(O)c1 [10734/F05] | -1.1 |
| O=C1Nc2ccc(S(=O)(=O)N3CCOCC3)cc2C1=Cc1ccc([N+](=O)[O-])cc1 [10734/F06] | -21.4 |
